Tests used:
[1] = tested on: Trypanosoma brucei rhodesiense; test: microbe, parasite or virus in culture; format: functional, organism-based, STIB 900
Description: DNDI: HAT in Vitro, 72 hour

cells [2] = format: functional, cell-based; details: Rattus norvegicus, L6, 72 h
Description: DNDI: Cytotoxicity in Vitro, 72 hour, in rat skeletal myoblast cells

Leishmania donovani [3] = test: microbe, parasite or virus in culture; format: functional, organism-based, MHOM/ET/67/L82
Description: DNDI: Leish (axenic) in Vitro, 72 hour

Plasmodium falciparum = test: microbe, parasite or virus in culture; format: functional, organism-based, K1
Description: DNDI: Malaria in Vitro, 72 hour

Leishmania donovani [4] = test: microbe, parasite or virus in culture; format: functional, organism-based, MHOM/ET/67/L82; remark: listed apart in the source
Description: DNDI: Leish (macro) in Vitro, 96 hour

Trypanosoma cruzi = test: microbe, parasite or virus in culture; format: functional, organism-based, Tulahuen C4 (LacZ)
Description: DNDI: Chagas in Vitro, 96 hour

cells [5] = format: functional, cell-based; details: Mus musculus, NMRI, BalbC or CD1 mice, Macrophage, 96 h
Description: DNDI: Cytotoxicity in Vitro, 96 hour, in mouse macrophages (infected-amastigotes)

[6] = Trypanosoma brucei, STIB 900, 72 h
[7] = Leishmania donovani, MHOM/ET/67/L82, 72 h
[8] = Plasmodium falciparum, K1, 72 h
[9] = Leishmania donovani, MHOM/ET/67/L82, 96 h
[10] = Trypanosoma cruzi, Tulahuen C4 (LacZ), 96 h

Molecule	IC50 [1, 6]	IC50 (cells [2])	IC50 (Leishmania donovani [3]; [7])	IC50 (Plasmodium falciparum; [8])	IC50 (Leishmania donovani [4]; [9])	IC50 (Trypanosoma cruzi; [10])	IC50 (cells [5])	IC50 [1]	IC50 (Leishmania donovani [3])	IC50 (Plasmodium falciparum)	IC50 (Leishmania donovani [4])	IC50 (Trypanosoma cruzi)
CC(C)(C)NC(=O)[C@@H]1CC2CCCCC2CN1C[C@@H](O)[C@H](Cc1ccccc1)NC(=O)[C@H](CC(N)=O)NC(=O)c1ccc2ccccc2n1 (some centres not stated)	12.3 µM	18.2 µM	77.4 µM	11.9 µM	> 44.7 µM	17.1 µM	> 44.7 µM	–	–	–	–	–
CCCSc1ccc2[nH]c(NC(=O)OC)nc2c1 [ALBENDAZOLE]	14.7 µM	0.41 µM	> 113 µM	–	> 3.77 µM	12.3 µM	11.3 µM	–	–	–	–	–
CO[C@H]1/C=C/O[C@@]2(C)Oc3c(C)c(O)c4c(c3C2=O)C2=NC3(CCN(CC(C)C)CC3)NC2=C(NC(=O)/C(C)=C\C=C\[C@H](C)[C@H](O)[C@@H](C)[C@@H](O)[C@H](C)[C@H](OC(C)=O)[C@H]1C)C4=O	12.6 µM	60.9 µM	56.4 µM	1.59 µM	> 35.4 µM	27.5 µM	> 35.4 µM	–	–	–	–	–
CN1CCN(CCCN2c3ccccc3Sc3ccc(C(F)(F)F)cc32)CC1 [TRIFLUOPERAZINE]	1.23 µM	11 µM	52.9 µM	1.48 µM	> 7.36 µM	10.1 µM	24.5 µM	–	–	–	–	–
CC[C@@H]1OC(=O)[C@@H](C)[C@H](O[C@H]2C[C@@](C)(OC)[C@@H](O)[C@H](C)O2)[C@@H](C)[C@H](O[C@H]2O[C@@H](C)C[C@@H](N(C)C)[C@@H]2O)[C@@](C)(O)C[C@H](C)C(=O)[C@@H](C)[C@H](O)[C@@]1(C)O	72.1 µM	92.2 µM	> 133 µM	9.91 µM	> 39.9 µM	114 µM	> 39.9 µM	–	–	–	–	–
Cc1ncc([N+](=O)[O-])n1CC(C)O (configuration not stated) [SECNIDAZOLE]	28.7 µM	> 483 µM	> 161 µM	–	> 161 µM	> 161 µM	> 161 µM	–	–	–	–	–
AURANOFIN	–	–	–	–	–	–	–	0.01 µM	0.11 µM	1.67 µM	> 1.47 µM	2.27 µM
O=C(Nc1ccc([N+](=O)[O-])cc1Cl)c1cc(Cl)ccc1O [NICLOSAMIDE]	1.67 µM	2.3 µM	0.15 µM	1.14 µM	> 0.31 µM	2.49 µM	1.01 µM	–	–	–	–	–
CC(C)CN(C[C@@H](O)[C@H](Cc1ccccc1)NC(=O)O[C@H]1CO[C@H]2OCC[C@H]21)S(=O)(=O)c1ccc(N)cc1	31.4 µM	–	–	46.9 µM	> 54.8 µM	92.2 µM	–	–	–	–	–	–
CN(C)CCCN1c2ccccc2Sc2ccc(Cl)cc21 [CHLORPROMAZINE]	1.25 µM	12.3 µM	48.5 µM	3.03 µM	> 9.41 µM	17.2 µM	31.4 µM	–	–	–	–	–
CC(C)(C)NC(=O)[C@@H]1CN(Cc2cccnc2)CCN1C[C@@H](O)C[C@@H](Cc1ccccc1)C(=O)N[C@H]1c2ccccc2C[C@H]1O	48.2 µM	> 141 µM	> 141 µM	6.03 µM	> 42.3 µM	93.5 µM	> 42.3 µM	–	–	–	–	–
OC(Cn1cncn1)(Cn1cncn1)c1ccc(F)cc1F [FLUCONAZOLE]	–	> 294 µM	–	–	> 98 µM	9.96 µM	> 98 µM	–	–	–	–	–
CNCCC=C1c2ccccc2CCc2ccccc21 [NORTRIPTYLINE]	1.17 µM	27.9 µM	> 342 µM	0.58 µM	> 11.4 µM	22.9 µM	38 µM	–	–	–	–	–
CN1CCC(=C2c3ccccc3CCc3sccc32)CC1 [PIZOTYLINE]	3.99 µM	45 µM	–	1.86 µM	> 33.9 µM	30.6 µM	> 102 µM	–	–	–	–	–
CN1CC(=O)N2[C@H](c3ccc4c(c3)OCO4)c3[nH]c4ccccc4c3C[C@@H]2C1=O	97.6 µM	221 µM	40.1 µM	> 12.8 µM	> 77 µM	8.6 µM	> 77 µM	–	–	–	–	–
COc1ccc(Cl)cc1C(=O)NCCc1ccc(S(=O)(=O)NC(=O)NC2CCCCC2)cc1 [GLYBURIDE]	87.7 µM	116 µM	9.8 µM	38.3 µM	> 60.7 µM	93.9 µM	> 60.7 µM	–	–	–	–	–
CCC[C@@]1(CCc2ccccc2)CC(O)=C([C@H](CC)c2cccc(NS(=O)(=O)c3ccc(C(F)(F)F)cn3)c2)C(=O)O1	26.4 µM	53.4 µM	1.64 µM	44.6 µM	> 49.8 µM	28.2 µM	> 49.8 µM	–	–	–	–	–
COC1=CC(=O)C[C@@H](C)[C@]12Oc1c(Cl)c(OC)cc(OC)c1C2=O [GRISEOFULVIN]	40 µM	20.5 µM	87 µM	75.1 µM	> 85 µM	87.3 µM	> 85 µM	–	–	–	–	–
CO[C@H]1/C=C/O[C@@]2(C)Oc3c(C)c(O)c4c(O)c(cc(O)c4c3C2=O)NC(=O)/C(C)=C\C=C\[C@H](C)[C@H](O)[C@@H](C)[C@@H](O)[C@@H](C)[C@H](OC(C)=O)[C@@H]1C [RIFAMYCIN]	0.99 µM	15.7 µM	1.5 µM	0.55 µM	> 13.9 µM	50 µM	41.6 µM	–	–	–	–	–

Molecule	IC50 [1, 6]	IC50 (cells [2])	IC50 (Leishmania donovani [3]; [7])	IC50 (Plasmodium falciparum; [8])	IC50 (Leishmania donovani [4]; [9])	IC50 (Trypanosoma cruzi; [10])	IC50 (cells [5])	IC50 [1]	IC50 (Leishmania donovani [3])	IC50 (Plasmodium falciparum)	IC50 (Leishmania donovani [4])	IC50 (Trypanosoma cruzi)
Clc1ccc(C(OCCN2CCCCC2)c2ccccc2)cc1 (configuration not stated) [CLOPERASTINE]	4.91 µM	43.4 µM	–	0.87 µM	> 30.3 µM	9.46 µM	90.9 µM	–	–	–	–	–
COC(=O)N[C@H](C(=O)N[C@@H](Cc1ccccc1)[C@@H](O)CN(Cc1ccc(-c2ccccn2)cc1)NC(=O)[C@@H](NC(=O)OC)C(C)(C)C)C(C)(C)C [ATAZANAVIR]	12.7 µM	46.5 µM	24.1 µM	7.95 µM	> 37.5 µM	33.3 µM	> 37.5 µM	–	–	–	–	–
CC(=O)[C@H]1CC[C@@H]2[C@@H]3CC[C@@H]4C[C@](C)(O)CC[C@]4(C)[C@H]3CC[C@@]12C	5.47 µM	23.5 µM	42.5 µM	> 15 µM	> 30.1 µM	65 µM	> 90.2 µM	–	–	–	–	–
CO[C@H]1/C=C/O[C@]2(C)Oc3c(C)c(O)c4c(O)c(c5c(nc6cc(C)ccn65)c4c3C2=O)NC(=O)/C(C)=C\C=C\[C@H](C)[C@H](O)[C@@H](C)[C@@H](O)[C@H](C)[C@H](OC(C)=O)[C@H]1C	17.1 µM	88 µM	15 µM	0.92 µM	> 38.2 µM	40.2 µM	> 38.2 µM	–	–	–	–	–
Cc1c(C)c2c(c(C)c1O)CCC(C)(COc1ccc(CC3SC(=O)NC3=O)cc1)O2 (configuration not stated) [TROGLITAZONE]	59.3 µM	80.6 µM	4.26 µM	7.27 µM	> 67.9 µM	32.6 µM	> 67.9 µM	–	–	–	–	–
Nc1ccc(S(=O)(=O)Nc2ncccn2)cc1 [SULFADIAZINE]	18.4 µM	20.6 µM	–	1.44 µM	> 12 µM	24.9 µM	40.1 µM	–	–	–	–	–
O=C(N/N=C/c1ccc([N+](=O)[O-])o1)c1ccc(O)cc1 [NIFUROXAZIDE]	0.03 µM	12.3 µM	2.83 µM	7.82 µM	> 10.9 µM	0.23 µM	36.2 µM	–	–	–	–	–
CC(=O)N1CCN(c2ccc(OCC3COC(Cn4ccnc4)(c4ccc(Cl)cc4Cl)O3)cc2)CC1 (configuration not stated) [KETOCONAZOLE]	33.1 µM	51 µM	38.8 µM	–	> 18.8 µM	0.27 µM	–	–	–	–	–	–
CC(C)c1nc(CN(C)C(=O)N[C@H](C(=O)N[C@@H](Cc2ccccc2)C[C@H](O)[C@H](Cc2ccccc2)NC(=O)OCc2cncs2)C(C)C)cs1 [RITONAVIR]	4.3 µM	–	8.97 µM	16.2 µM	> 41.6 µM	20.7 µM	–	–	–	–	–	–
CN1CCC(=C2c3ccccc3CC(=O)c3sccc32)CC1 [KETOTIFEN]	15.2 µM	147 µM	> 291 µM	0.75 µM	> 97 µM	–	> 97 µM	–	–	–	–	–
NC12CC3CC(CC(C3)C1)C2 [AMANTADINE]	52.8 µM	215 µM	> 595 µM	5.67 µM	> 198 µM	–	> 198 µM	–	–	–	–	–
CN(C)CCC=C1c2ccccc2CCc2ccccc21 [AMITRIPTYLINE]	3.03 µM	42.2 µM	–	1.16 µM	> 10.8 µM	35.1 µM	36.1 µM	–	–	–	–	–
C[C@@H](Cc1cccc(C(F)(F)F)c1)NCCOC(=O)c1ccccc1	21.1 µM	49.1 µM	–	6.52 µM	54.4 µM	73.7 µM	> 85.4 µM	–	–	–	–	–
Cn1c([N+](=O)[O-])cnc1N1CCN(S(C)(=O)=O)C1=O [SATRANIDAZOLE]	18.7 µM	> 311 µM	10.4 µM	–	> 104 µM	19.1 µM	> 104 µM	–	–	–	–	–
O=C1CN(/N=C/c2ccc([N+](=O)[O-])o2)C(=O)N1 [NITROFURANTOIN]	0.5 µM	90.3 µM	2.12 µM	–	> 41.8 µM	4.35 µM	125 µM	–	–	–	–	–
CCN(CC)CCCC(C)Nc1ccnc2cc(Cl)ccc12 (configuration not stated) [CHLOROQUINE]	3.81 µM	50.6 µM	> 196 µM	–	> 58.9 µM	99.2 µM	> 58.9 µM	–	–	–	–	–
Nc1nc(N)c2nc(-c3ccccc3)c(N)nc2n1	21.7 µM	8.53 µM	–	17.2 µM	> 11.8 µM	22.7 µM	> 11.8 µM	–	–	–	–	–
CCc1nc(N)nc(N)c1-c1ccc(Cl)cc1 [PYRIMETHAMINE]	6.75 µM	2.51 µM	–	–	> 12.1 µM	5.71 µM	> 12.1 µM	–	–	–	–	–

From ChEMBL document CHEMBL3392926, “Antiprotozoal Activity Profiling of Approved Drugs: A Starting Point toward Drug Repositioning”
